The conditions of series [1]: Sax, 6th Ed., P. 347; cited from earlier work.
Series [2] has as its system man. The conditions noted are these: cited from earlier work.
For series [3] the following is noted: C.A. 96:47119t, 101:189850v; cited from earlier work.
The conditions of series [4]: 25° C.; cited from earlier work.
Series [5] deals with mus. The conditions noted are these: scu-mus; cited from earlier work.
For series [6] the following is noted: C.A. 100:116031y; cited from earlier work.
The conditions of series [7]: C.A. 95:36562k; cited from earlier work.
The conditions of series [8]: C.A. 103:136646t; cited from earlier work.
Series [9] can be described thus: Copper oxide cleaning (Example 5), painted cinder block. The conditions noted are these: weight loss. The protocol: Samples of coarse, deep pore cinder block (2×2×1/2 inch) were sealed by spray applying a 4-7 mil wet film thickness coating of interior, semigloss alkyd paint. The coated samples were air dried at ambient temperature for 7 days and subsequently cured at 150° F. for 8 hours. A 5% dispersion of copper oxide in hexane was spray applied until the dry copper oxide up-take reached approximately 250 mg/sample. After spraying, the samples were allowed to dry at ambient temperature for 24 hours, whereupon 20-25 wet mils of the liquid-state composition were spray applied over the contaminated surfaces. After 10 minutes, the liquid-statecomposition was scrubbed into the surface using the circular action of a nylon dental brush. After 20 scrub cycles, the brush was removed, and an additional 25-30 mils wet film thickness of liquid-state composition were spray applied over the treated area. After drying for 24 hours at ambient temperature, the solid-state matrix was removed and the reverse side was inspected. […] The larger matrix projections reached 0.6 to 0.9 mm in length. […] A subtle discoloration of the white alkyd paint (graying) was noted. Weight-loss measurements indicated 78% removal of CuO. […]

Series [10] deals with gpg. The conditions noted are these: orl-gpg; cited from earlier work.
The conditions of series [11]: C.A. 101:205528d; cited from earlier work.
The conditions of series [12]: C.A. 98:100331a; cited from earlier work.
The test system of series [13] is dog. The conditions noted are these: scu-dog; cited from earlier work.
Series [14] can be described thus: Time required to form solid-state, sodium silicofluoride added to Neoprene 671 latex. It is filed as physicochemical. An excerpt: If the overspray method is not preferred, an in-situ solidifying compound can be used that reduces the application process to a single step. To effect in-situ transformation from the liquid to the solid state, about 0.25 to about 6 parts of a solidifying compound such as ammonium silicofluoride, sodium silicofluoride, or potassium silicofluoride per hundred parts solid resin (phr) may be added to the liquid-state composition as a finely ground (e.g., ball milled) dispersion just prior to application.
The time required to form a solid-state will vary according to concentration of solidifying compound and polymer type. By way of example, when sodium silicofluoride was added to Neoprene 671 latex, the following results were attained.

For series [15], the system named is gpg. The series can be described thus: Oral toxicity orl-gpg LDLo (lead toxicity mitigation). The conditions noted are these: transformation of lead oxide to lead sulfide.

Read-outs that look alike come from different tables or passages of the source.

As for Barium sulfate, the acute toxicity entry in series [1] is given as “not being acutely toxic”. In the case of `[Cd]` [Cadmium], the TCLo in series [2] (inhl-man) is listed as 40 μg/m^3. Consider `[Cu]` [Copper], for which the TDLo in series [2] (orl-hmn) was 0.12 mg/kg. Consider `O=P(O)(O)O[C@H]1[C@H](OP(=O)(O)O)[C@@H](OP(=O)(O)O)[C@H](OP(=O)(O)O)[C@@H](OP(=O)(O)O)[C@H]1OP(=O)(O)O` [Sodium phytate], for which the antidotal activity result in series [3] is on record as “provides antidotal activity”. In the case of Formaldehyde Hydrosulfate, in series [4], the Vapor pressure result is “No vapor pressure”. In addition, in series [5], the LDLo is listed as 3000 mg/kg and the toxicity grade result was “Moderate toxicity”. In the case of `[Sb]` [Antimony], the LDLo in series [2] (unk.-man) is reported as 15 mg/kg.

As to `[SH-].[SH-].[S]=[Mo]=[S]` [Tetrathiomolybdate (VI)], the “antidotal activity for copper” value in series [6] is reported as “provides antidotal activity for copper”. In the case of `O=C(O)C(S)C(S)C(=O)O` (centres unmarked) [2,3-dimercaptosuccinic acid], the “antidotal activity for antimony” value in series [7] is listed as “provides antidotal activity for antimony”. Turning to `O=C(O)CN(CC(=O)O)CC(=O)O` [N,N-bis(carboxymethyl)glycine], the “antidotal activity for chromium” value in [8] is “provides antidotal activity for chromium”. On to `O=P([O-])([O-])[O-].[Na+].[Na+].[Na+]` [trisodiumphosphate], for which, in series [9], the “removal of CuO” value is 55%.

Take lead oxide: in series [10], the LDLo was 1000 mg/kg.

In the case of `O=C(O)c1ccccc1C(=O)NCC(S)CS` (centres unmarked) [N-(2,3-dimercaptopropyl)phthalamidic acid], the “antidotal activity for sodium arcenate” value in series [11] was “provides antidotal activity for sodium arcenate”. Regarding `[Cl][Pb][Cl]` [Lead chloride], the LDLo in series [10] is given as 2000 mg/kg. Turning to `O=C([O-])[O-].O=C([O-])[O-].[OH-].[OH-].[Pb+2].[Pb+2].[Pb+2]` [White lead], the Symptoms result in series [2] (in vivo) is recorded as “Same as lead halides”. Besides, the TDLo in series [2] (orl-man) is 214 mg/kg. Regarding `O=Cc1ccc(O)cc1O` [2,4-dihydroxybenzaldehyde], the “spray-on reagent for identification of arsenic III” value in series [12] is on record as “useful as a spray-on reagent for the identification of arsenic III”. Usually LD50 stands for the dose at which mortality reaches 50%. On to `C=O` [Formaldehyde], for which the Vapor pressure in [4] is 0.187 kPa. Besides, in series [5], the LD50 is recorded as 300 mg/kg and the toxicity grade entry is “Severe toxicity”. As to `[Cr]` [Chromium], the LDLo in series [13] is 330 mg/kg. Take `F[Si-2](F)(F)(F)(F)F.[Na+].[Na+]` [Sodium Silicofluoride, sodium silicofluoride]: the “Time Required to Form Solid-State” value was found to be 150 min in [14] (2 phr added to Neoprene 671 latex), 18 min in series [14] (2.5 phr added to Neoprene 671 latex), 7 min in series [14] (3 phr added to Neoprene 671 latex) and 5 min in series [14] (4 phr added to Neoprene 671 latex).

`[S]=[Pb]` [lead sulfide]: in [15], the reduction in toxicity amounted to 10 fold. Besides, in [10], the LDLo is 10 gm/Kg. In the case of `[Ba]` [Barium], the LDLo in series [2] (orl-hmm) is 11.4 mg/kg.

(Values after patent US5421897A, “Abatement process for contaminants” (priority 1992, dated 1995).)
